Test system: A549 cells
Assay: Examination of the apoptotic caspase activation (Western Blot, PARP cleaving)
Assay type: cell-based
Conditions: 48 hours, extract 25 and 50 μg/ml, staurosporine as positive control stimulus
Description: To examine the apoptotic caspase activation, A549 cells were treated with 25 and 50 μg/ml of the extract for 48 hours. The cells were then lysed, and the cellular proteins were separated using gel electrophoresis and examined in the Western Blot with an antiPARP antibody (Poly(ADP-Ribose) polymerase, caspase substrate) for the apoptotic cleaving of this protein by caspases. The apoptosis-inductor staurosporine served as the positive control stimulus. The experiments were conducted in two parallel batches.

CN[C@@H]1C[C@H]2O[C@@](C)([C@@H]1OC)n1c3ccccc3c3c4c(c5c6ccccc6n2c5c31)C(=O)NC4 [staurosporine]
caspase activation / apoptotic cleaving of PARP: efficient cleaving of the caspase substrate
